# Laboratory results taken from patent US10065970B2 (Genentech, Inc., priority 2015, dated 2018).
# Like-named read-outs stand apart in the source and are kept apart here.
# Target: PI3Kα (alpha) (Homo sapiens (Human), UniProt P42336)
# Experiment: p110α (alpha) PI3K Binding Assay (ADP-Glo lipid kinase reaction)
# Format: biochemical
# Conditions: read-out: PI3Kα-(alpha) ATP (Ki) micromolar
# Description: The ability of a compound of the invention to act as an inhibitor of PI3Kα was determined using the methods of Example 901.
# PI3K Binding assays are intended for determining the biochemical potency of small molecule PI3K inhibitors. The PI3K lipid kinase reaction is performed in the presence of PIP2:3PS lipid substrate (Promega #V1792) and ATP. Following the termination if the kinase reaction, turnover of ATP to ADP by the phosphorylation of the lipid substrate is detected using the Promega ADP-Glo™ (Promega #V1792) assay. Reactions are carried out using the following conditions:
# After 120 minutes of reaction time, the kinase reaction is terminated. Any ATP remaining after the reaction is depleted, leaving only ADP. Then the Kinase Detection Reagent is added to convert ADP to ATP, which is used in a coupled luciferin/luciferase reaction. The luminescent output is measured and is correlated with kinase activity.
# All reactions are carried out at room temperature. A 3 μl mixture (1:1) of enzyme/lipid substrate solution is added to a 384 well white assay plate (Perkin Elmer #6007299) containing 50 nl of test compound or DMSO only for untreated controls. The reaction is started by the addition of 2 μl ATP/MgCl2. The kinase reaction buffer contains 50 mM HEPES, 50 mM NaCl, 3 mM MgCl2, 0.01% BSA, 1% DMSO, and enzyme and substrate concentrations as indicated in the above table. The reaction is stopped by the addition of 10 μL ADP-Glo reagent. Plates are read in a Perkin Elmer Envision system using luminescence mode. 10 point dose response curves are generated for each test compound. Ki values for each compound are determined using the Morrison Equation.
# [1] = PI3K alpha 0.2 nM, ATP 40 μM, PIP2:3PS 50 μM, 120 min, room temperature, Ki by Morrison Equation
# PI3Kα (alpha), sequence (P42336 whole entry): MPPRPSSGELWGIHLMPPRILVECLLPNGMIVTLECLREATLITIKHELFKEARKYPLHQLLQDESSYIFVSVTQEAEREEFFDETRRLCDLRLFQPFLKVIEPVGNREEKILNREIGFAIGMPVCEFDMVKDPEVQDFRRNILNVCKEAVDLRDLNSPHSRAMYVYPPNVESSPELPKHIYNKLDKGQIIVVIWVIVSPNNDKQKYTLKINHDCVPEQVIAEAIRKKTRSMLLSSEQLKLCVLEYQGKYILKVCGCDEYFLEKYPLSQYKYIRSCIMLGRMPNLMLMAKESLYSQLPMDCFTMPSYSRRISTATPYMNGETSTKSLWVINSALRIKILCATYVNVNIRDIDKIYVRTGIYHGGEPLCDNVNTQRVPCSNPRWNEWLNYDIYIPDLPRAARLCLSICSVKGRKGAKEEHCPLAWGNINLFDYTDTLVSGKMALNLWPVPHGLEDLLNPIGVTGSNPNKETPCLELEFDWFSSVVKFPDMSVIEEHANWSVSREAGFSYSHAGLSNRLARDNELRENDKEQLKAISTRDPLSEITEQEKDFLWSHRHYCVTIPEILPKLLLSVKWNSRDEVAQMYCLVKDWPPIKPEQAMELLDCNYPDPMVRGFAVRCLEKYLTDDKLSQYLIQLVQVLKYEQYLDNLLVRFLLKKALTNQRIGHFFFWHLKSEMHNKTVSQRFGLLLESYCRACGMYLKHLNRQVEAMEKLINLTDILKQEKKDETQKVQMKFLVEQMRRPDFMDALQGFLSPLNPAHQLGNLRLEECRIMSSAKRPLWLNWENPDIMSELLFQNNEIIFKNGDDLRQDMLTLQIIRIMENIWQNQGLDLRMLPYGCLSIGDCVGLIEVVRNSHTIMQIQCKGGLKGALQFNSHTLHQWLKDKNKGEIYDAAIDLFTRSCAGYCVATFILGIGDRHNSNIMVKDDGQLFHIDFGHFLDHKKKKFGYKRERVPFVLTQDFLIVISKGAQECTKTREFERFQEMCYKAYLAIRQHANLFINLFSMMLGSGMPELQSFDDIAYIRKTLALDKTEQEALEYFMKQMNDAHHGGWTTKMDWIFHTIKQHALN
# PI3Kα (alpha), sequence (P27986 whole entry partner): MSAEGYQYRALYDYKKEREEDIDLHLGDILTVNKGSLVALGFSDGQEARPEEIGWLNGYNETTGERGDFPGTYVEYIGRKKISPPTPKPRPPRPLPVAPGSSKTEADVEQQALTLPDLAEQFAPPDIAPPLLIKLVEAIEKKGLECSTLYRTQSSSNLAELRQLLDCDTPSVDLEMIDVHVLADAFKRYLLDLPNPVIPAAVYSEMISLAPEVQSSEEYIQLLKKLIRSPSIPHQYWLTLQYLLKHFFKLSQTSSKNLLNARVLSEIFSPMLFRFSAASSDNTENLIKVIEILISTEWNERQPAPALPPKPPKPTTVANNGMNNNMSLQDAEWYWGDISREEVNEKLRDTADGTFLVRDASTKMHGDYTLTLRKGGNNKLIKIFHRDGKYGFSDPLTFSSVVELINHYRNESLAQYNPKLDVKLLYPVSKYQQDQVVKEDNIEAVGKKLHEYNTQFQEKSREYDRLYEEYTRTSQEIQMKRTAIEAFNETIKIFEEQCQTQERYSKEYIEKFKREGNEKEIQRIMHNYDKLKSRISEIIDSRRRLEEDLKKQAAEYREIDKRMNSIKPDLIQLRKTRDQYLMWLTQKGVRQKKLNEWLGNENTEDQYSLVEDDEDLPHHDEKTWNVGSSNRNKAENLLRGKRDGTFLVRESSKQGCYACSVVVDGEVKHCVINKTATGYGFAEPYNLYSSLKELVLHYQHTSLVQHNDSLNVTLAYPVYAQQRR
Compound,Ki [1],Ki
"Nc1nc2cc(-c3nc4cc(N[C@H]5C[C@H](F)C5)cc5c4n3CCCO5)ccc2o1 (single isomer, unassigned) [Example 202, 1-(2-Aminobenzo[d]oxazol-5-yl)-N-((1r,3r)-3-fluorocyclobutyl)-8,9-dihydro-7H-6-oxa-2,9a-diazabenzo[cd]azulen-4-amine]",0.563 nM,–
"Nc1nc2cc(-c3nc4cc(N[C@H]5C[C@@H](F)C5)cc5c4n3CCCO5)ccc2o1 (single isomer, unassigned) [Example 203, 1-(2-Aminobenzo[d]oxazol-5-yl)-N-((1s,3s)-3-fluorocyclobutyl)-8,9-dihydro-7H-6-oxa-2,9a-diazabenzo[cd]azulen-4-amine]",1.37 nM,–
"NC(=O)[C@H](C1CC1)n1cc(-c2cc3c4c(c2)nc(-c2ccc5oc(N)nc5c2)n4CCCO3)cn1 (single isomer, unassigned) [Example 230]",0.309 nM,–
"NC(=O)[C@@H](C1CC1)n1cc(-c2cc3c4c(c2)nc(-c2ccc5oc(N)nc5c2)n4CCCO3)cn1 (single isomer, unassigned) [Example 231]",0.437 nM,–
"COC[C@](C)(C(N)=O)n1cc(-c2cc3c4c(c2)nc(-c2ccc5oc(N)nc5c2)n4CCCO3)cn1 (single isomer, unassigned) [Example 232]",0.311 nM,–
"COC[C@@](C)(C(N)=O)n1cc(-c2cc3c4c(c2)nc(-c2ccc5oc(N)nc5c2)n4CCCO3)cn1 (single isomer, unassigned) [Example 233]",0.119 nM,–
"CC[C@@H](Oc1cc2c3c(c1)nc(-c1ccc(-c4nc[nH]n4)cc1)n3CCCCO2)C(N)=O (single isomer, unassigned) [Example 267]",1.28 nM,–
"CC[C@H](Oc1cc2c3c(c1)nc(-c1ccc(-c4nc[nH]n4)cc1)n3CCCCO2)C(N)=O (single isomer, unassigned) [Example 268]",0.0214 nM,–
"C[C@@H](Oc1cc2c3c(c1)nc(-c1ccc4sc(N)nc4c1)n3CCCCO2)C(N)=O (single isomer, unassigned) [Example 275]",0.754 nM,–
"C[C@H](Oc1cc2c3c(c1)nc(-c1ccc4sc(N)nc4c1)n3CCCCO2)C(N)=O (single isomer, unassigned) [Example 276]",0.113 nM,–
"Nc1nc2cc(-c3nc4cc(Br)cc5c4n3CCCO5)ccc2o1 [Example 101, 5-(4-Bromo-8,9-dihydro-7H-6-oxa-2,9a-diazabenzo[cd]azulen-1-yl)benzo [d]oxazol 2-amine]",7.75 nM,–
"Cc1nc2nc(-c3nc4cc(Br)cc5c4n3CCCO5)ccc2o1 [Example 102, 4-bromo-1-(2-methyloxazolo[4,5-b]pyridin-5-yl)-8,9-dihydro-7H-6-oxa-2,9a-diazabenzo[cd]azulene]",322 nM,–
"Cc1nc2cc(-c3nc4cc(N5CCCC5C(N)=O)cc5c4n3CCCO5)ccc2o1 (centres unmarked) [Example 103, 1-(1-(2-methylbenzo[d]oxazol-5-yl)-8,9-dihydro-7H-6-oxa-2,9a-diazabenzo[cd]azulen-4-yl)pyrrolidine-2-carboxamide]",16.2 nM,–
"C[C@H](Nc1cc2c3c(c1)nc(-c1ccc4oc(N)nc4c1)n3CCCO2)C(N)=O [Example 105, (S)-2-((1-(2-Aminobenzo[d]oxazol-5-yl)-8,9-dihydro-7H-6-oxa-2,9a-diazabenzo[cd]azulen-4-yl)amino)propanamide]",0.032 nM,–
"C[C@H](Nc1cc2c3c(c1)nc(-c1ccccc1)n3CCCO2)C(N)=O [Example 106, (S)-2-((1-phenyl-8,9-dihydro-7H-6-oxa-2,9a-diazabenzo[cd]azulen-4-yl)amino)propanamide]",130 nM,–
"C[C@@H](Nc1cc2c3c(c1)nc(-c1ccc4oc(N)nc4c1)n3CCCO2)C(N)=O [Example 107, (R)-2-((1-(2-Aminobenzo[d]oxazol-5-yl)-8,9-dihydro-7H-6-oxa-2,9a-diazabenzo[cd]azulen-4-yl)amino)propanamide]",0.58 nM,–
"C[C@H](Nc1cc2c3c(c1)nc(-c1cccnc1)n3CCCO2)C(N)=O [Example 108, (S)-2-((1-(Pyridin-3-yl)-8,9-dihydro-7H-6-oxa-2,9a-diazabenzo[cd]azulen-4-yl)amino)propanamide]",22.1 nM,–
"C[C@H](Nc1cc2c3c(c1)nc(-c1ccncn1)n3CCCO2)C(N)=O [Example 109, (S)-2-((1-(pyrimidin-4-yl)-8,9-dihydro-7H-6-oxa-2,9a-diazabenzo[cd]azulen-4-yl)amino)propanamide]",24.3 nM,–
"C[C@H](Nc1cc2c3c(c1)nc(-c1ccc(C#N)cn1)n3CCCO2)C(N)=O [Example 110, (S)-2-((1-(5-Cyanopyridin-2-yl)-8,9-dihydro-7H-6-oxa-2,9a-diazabenzo[cd]azulen-4-yl)amino)propanamide]",261 nM,–
"COc1ccc(-c2nc3cc(N[C@@H](C)C(N)=O)cc4c3n2CCCO4)cn1 [Example 111, (S)-2-((1-(6-Methoxypyridin-3-yl)-8,9-dihydro-7H-6-oxa-2,9a-diazabenzo[cd]azulen-4-yl)amino)propanamide]",11.6 nM,–
"C[C@H](Nc1cc2c3c(c1)nc(-c1ccccn1)n3CCCO2)C(N)=O [Example 112, (S)-2-((1-(Pyridin-2-yl)-8,9-dihydro-7H-6-oxa-2,9a-diazabenzo[cd]azulen-4-yl)amino)propanamide]",160 nM,–
"NC(=O)[C@@H](Nc1cc2c3c(c1)nc(-c1ccc4c(c1)OC(F)(F)O4)n3CCCO2)C1CC1 [Example 113, (S)-2-Cyclopropyl-2-((1-(2,2-difluorobenzo[d][1,3]dioxol-5-yl)-8,9-dihydro-7H-6-oxa-2,9a-diazabenzo[cd]azulen-4-yl)amino)acetamide]",268 nM,–
"NC(=O)[C@@H](Nc1cc2c3c(c1)nc(-c1ccc4c(c1)OCO4)n3CCCO2)C1CC1 [Example 114, (S)-2-((1-(Benzo[d][1,3]dioxol-5-yl)-8,9-dihydro-7H-6-oxa-2,9a-diazabenzo[cd]azulen-4-yl)amino)-2-cyclopropylacetamide]",23.3 nM,–

# Now from value to molecule:
Ki [1],Ki,Compound
0.208 nM,–,"C[C@H](Oc1cc2c3c(c1)nc(-c1cc4sc(N)nc4cc1F)n3CCCCO2)C(N)=O (single isomer, unassigned) [Example 277]"
4.6 nM,–,"C[C@@H](Oc1cc2c3c(c1)nc(-c1cc4sc(N)nc4cc1F)n3CCCCO2)C(N)=O (single isomer, unassigned) [Example 278]"
1.02 nM,–,"NC(=O)[C@H](Oc1cc2c3c(c1)nc(-c1cc(F)c4nc(N)sc4c1)n3CCCCO2)C1CC1 (single isomer, unassigned) [Example 279]"
< 0.02 nM,–,"NC(=O)[C@@H](Oc1cc2c3c(c1)nc(-c1cc(F)c4nc(N)sc4c1)n3CCCCO2)C1CC1 (single isomer, unassigned) [Example 280]"
0.027 nM,–,"NC(=O)[C@@H](Oc1cc2c3c(c1)nc(-c1ccc4nc(N)sc4c1)n3CCCCO2)C1CC1 (single isomer, unassigned) [Example 281]"
5.53 nM,–,"NC(=O)[C@H](Oc1cc2c3c(c1)nc(-c1ccc4nc(N)sc4c1)n3CCCCO2)C1CC1 (single isomer, unassigned) [Example 282]"
0.072 nM,–,"C[C@H](Oc1cc2c3c(c1)nc(-c1ccc4nc(N)sc4c1F)n3CCCCO2)C(N)=O (single isomer, unassigned) [Example 286]"
1.71 nM,–,"C[C@@H](Oc1cc2c3c(c1)nc(-c1ccc4nc(N)sc4c1F)n3CCCCO2)C(N)=O (single isomer, unassigned) [Example 287]"
0.038 nM,–,"CC[C@@H](C(N)=O)n1cc(-c2cc3c4c(c2)nc(-c2ccc5oc(N)nc5n2)n4CCCCO3)cn1 (single isomer, unassigned) [Example 301]"
0.102 nM,–,"CC[C@H](C(N)=O)n1cc(-c2cc3c4c(c2)nc(-c2ccc5oc(N)nc5n2)n4CCCCO3)cn1 (single isomer, unassigned) [Example 302]"
5.62 nM,–,"COC[C@H](Oc1cc2c3c(c1)nc(-c1ccc4nc(N)sc4c1)n3CCCCO2)C(N)=O (single isomer, unassigned) [Example 303]"
0.127 nM,–,"COC[C@@H](Oc1cc2c3c(c1)nc(-c1ccc4nc(N)sc4c1)n3CCCCO2)C(N)=O (single isomer, unassigned) [Example 304]"
< 0.02 nM,–,"NC(=O)[C@@H](Oc1cc2c3c(c1)nc(-c1ccc(-c4ncn[nH]4)c(F)c1)n3CCCCO2)C1CC1 (single isomer, unassigned) [Example 305]"
0.72 nM,–,"NC(=O)[C@H](Oc1cc2c3c(c1)nc(-c1ccc(-c4ncn[nH]4)c(F)c1)n3CCCCO2)C1CC1 (single isomer, unassigned) [Example 306]"
–,0.031 nM,"CC[C@@H](C(N)=O)n1cc(-c2cc3c4c(c2)nc(-c2ccc5oc(N)nc5n2)n4CCCO3)cn1 (single isomer, unassigned) [Example 311]"
–,0.039 nM,"CC[C@H](C(N)=O)n1cc(-c2cc3c4c(c2)nc(-c2ccc5oc(N)nc5n2)n4CCCO3)cn1 (single isomer, unassigned) [Example 312]"
0.737 nM,–,"COC[C@@H](Oc1cc2c3c(c1)nc(-c1ccc4nc(N)sc4n1)n3CCCCO2)C(N)=O (single isomer, unassigned) [Example 314]"
< 0.02 nM,–,"COC[C@H](Oc1cc2c3c(c1)nc(-c1ccc4nc(N)sc4n1)n3CCCCO2)C(N)=O (single isomer, unassigned) [Example 315]"
